Measured values as given in US10828326B2, “Compositions and methods for treating and preventing venom related poisoning” (priority 2015, dated 2020).

How the values were obtained:
[1] = rabbit ear-bleed model; CORM-2 injected at 10 mg/kg (equivalent to 279 μM final concentration); cited from earlier work
[2] = tested on: Crotalus atrox venom-enhanced tissue-type plasminogen activator initiated fibrinolysis; assay: Thrombelastography of human plasma pretreated with iron and/or CO before venom exposure in the presence of tPA (Example II); assay type: biochemical; details: 100 IU/ml tPA; for time to maximum rate of thrombus generation (TMRTG): 100 μM CORM-2
Description: Two hundred mg of lyophilized, pooled venom was obtained from four western diamondback rattlesnakes (Crotalus atrox) for experimentation. Venom was reconstituted in calcium-free phosphate buffered saline (PBS, Sigma-Aldrich, Saint Louis, Mo., USA) at a concentration of 20 mg/ml, aliquoted, and then stored at −80° C. until experimentation at the University of Arizona.
Pooled normal plasma (George King Bio-Medical, Overland Park, Kans., USA) anticoagulated with sodium citrate was rapidly thawed at 37° C. and used for experimentation. To assess the effects of pretreatment of antifibrinolytic plasma proteins with iron, CO, or both, 1% additions of PBS, ferric chloride (FeCl3, 99.9% pure, Sigma-Aldrich, Saint Louis, Mo., USA) in PBS, or CORM-2 (tricarbonyldichlororuthenium (II) dimer, a CO releasing molecule, Sigma-Aldrich, Saint Louis, Mo., USA) dissolved in dimethyl sulfoxide (DMSO, Sigma-Aldrich, Saint Louis, Mo., USA) were used. […] Plasma was exposed to these various agents for at least 5 min prior to incubations with venom.
The final volume for all subsequently described plasma sample mixtures was 359.4 μl. Sample composition consisted of […] of plasma; 10 μl of tissue factor reagent (0.1% final concentration in distilled water; Diagnostica Stago S.A.S., Asnieres sur Seine, France), 10 μl of tissue type plasminogen activator (tPA, 580 IU/μg, Genentech, Inc., San Francisco, Calif., USA; 100 IU/ml final concentration) and 3.4 μl of PBS or venom (final concentration 0.5-2.0 μg/ml). […] The aforementioned plasma and venom mixtures were placed in a disposable cup in a computer-controlled Thrombelastograph® hemostasis system (Model 5000, Haemoscope Corp., Niles, Ill., USA) and incubated for 5 min at 37° C., with addition of 20 μl of 200 mM CaCl2) as the last step to initiate clotting. Data were collected at 37° C. until clot lysis time (CLT) was observed. The following elastic modulus-based parameters previously described (see, Nielsen V G, Pretorius E. Blood Coagul Fibrinolysis 2014; 25:695-702) were determined: time to maximum rate of thrombus generation (TMRTG): this is the time interval (min) observed prior to maximum speed of clot growth; maximum rate of thrombus generation (MRTG): this is the maximum velocity of clot growth observed (dynes/cm^2/sec); total thrombus generation (TTG, dynes/cm^2), the final viscoelastic resistance observed after clot formation; time to maximum rate of lysis (TMRL, min), maximum rate of lysis (MRL, dynes/cm^2/sec) and CLT (min). Lastly, to assess if venom had thrombolytic properties that were tPA independent, n=4 replicates were performed wherein no tPA was added and data were collected for 3 h.
Data are presented as mean±SD. All conditions unless otherwise indicated were represented by n=8 replicates. This number of replicates reliably provides a statistical power>0.8 for P<0.05 (see, Nielsen V G, Pretorius E. Blood Coagul Fibrinolysis 2014; 25:695-702). A commercially available statistical program was used for two-way analysis of variance (ANOVA) to assess interactions of venom and tPA on coagulation kinetics and interactions of iron and CO on venom-enhanced fibrinolysis (SigmaStat 3.1, Systat Software, Inc., San Jose, Calif., USA). Additional one-way ANOVA followed by Holm-Sidak post hoc analyses were performed to assess differences between the conditions. Graphics depicting viscoelastic data were generated with a commercially available program (OrigenPro 7.5, OrigenLab Corporation, Northampton, Mass., USA).

[3] = tested on: C. atrox venom; assay: Isolated venom exposure to FeCl3, CORM-2 or iCORM-2, then thrombelastography in human plasma (Example VI); assay type: biochemical, Crotalus atrox; details: in words
Description: C. atrox venom was obtained from the National Natural Toxins Research Center at Texas A&M University-Kingsville, Tex., USA. Venom was reconstituted in calcium-free phosphate buffered saline (PBS, Sigma-Aldrich, Saint Louis, Mo., USA), and stored at −80° C. Pooled human normal plasma anticoagulated with sodium citrate was obtained from George King Bio-Medical, Overland Park, Kans., USA. Ferric chloride (FeCl3, 99.9% pure), tricarbonyldichlororuthenium (II) dimer (CORM-2), and dimethyl sulfoxide (DMSO) were obtained from Sigma-Aldrich. The final concentrations of FeCl3 (dissolved in PBS) and CORM-2 (dissolved in DMSO) were 0-10 μM and 0-100 μM, respectively; these were the concentrations used in previous works involving the effects of modifying fibrinogen prior to venom exposure in plasma.
To increase the detection of effects of iron/CO on venom activity, the concentration of venom chosen for isolated exposure and for addition to plasma was twice the amount expected to eliminate coagulation based on previous work (see, Nielsen V G, Boyer L V. Iron and carbon monoxide attenuate degradation of plasmatic coagulation by Crotalus atrox venom. Blood Coagul Fibrinolysis. In press). A 1 ml quantity of a 200 μg/ml solution of venom in PBS was prepared for each condition subsequently presented. The conditions were: 1) 1% addition (v/v) of PBS and DMSO to PBS without venom; 2) 1% addition (v/v) of PBS and DMSO to PBS with venom; 3) 1% addition of FeCl3 and CORM-2 to PBS without venom; 4) 1% addition of FeCl3 and CORM-2 to PBS […]) 1% addition of FeCl3 and DMSO to PBS with venom; 6) 1% addition of CORM-2 to PBS with venom; and lastly, 7) 1% addition of PBS and iCORM-2 to PBS with venom. After 3 min of incubation at room temperature, 3.6 μl of solution from one of these conditions was placed into 326 μl of plasma and 10 μl of tissue factor reagent (0.1% final concentration in distilled water; Diagnostica Stago S.A.S., Asnieres sur Seine, France) in a disposable cup in a computer-controlled Thrombelastograph® hemostasis system (Model 5000, Haemonetics Inc., Braintree, Mass., USA). After test solution addition, 20 μl of 200 mM CaCl2 was immediately added to initiate clotting. Data were collected at 37° C. for 15 min. […] 2014; 25(8):801-805) were determined: time to maximum rate of thrombus generation (TMRTG): this is the time interval (min) observed prior to maximum speed of clot growth; maximum rate of thrombus generation (MRTG): this is the maximum velocity of clot growth observed (dynes/cm^2/sec); and total thrombus generation (TTG, dynes/cm^2), the final viscoelastic resistance observed after clot formation. […]

[4] = tested on: Crotalus atrox venom; assay: Thrombelastography of human plasma pretreated with iron and/or CO, then incubated with Crotalus atrox venom (Example I); assay type: biochemical; details: 0.5 μg/ml venom, 5 min incubation
Description: (§1) Two-hundred mg of lyophilized, pooled venom was obtained from four western diamondback rattlesnakes (Crotalus atrox) for experimentation. Venom was reconstituted in calcium-free phosphate buffered saline (PBS, Sigma-Aldrich, Saint Louis, Mo., USA) at a concentration of 20 mg/ml, aliquoted, and then stored at −80° C. until experimentation at the University of Arizona. Pooled human normal plasma (George King Bio-Medical, Overland Park, Kans., USA) anticoagulated with sodium citrate was rapidly thawed at 37° C. and used for experimentation. To assess the effects of pretreatment of fibrinogen with iron, CO, or both, 1% additions of PBS, ferric chloride (FeCl3, 99.9% pure, Sigma-Aldrich, Saint Louis, Mo., USA) in PBS, or CORM-2 (tricarbonyldichlororuthenium (II) dimer, a CO releasing molecule, Sigma-Aldrich, Saint Louis, Mo., USA) dissolved in dimethyl sulfoxide (DMSO, Sigma-Aldrich, Saint Louis, Mo., USA). The final concentrations of FeCl3 and CORM-2 were 10 μM and 100 μM, respectively; these concentrations are associated with nearly maximal augmenting effects on coagulation kinetics (see, Nielsen V G, et al., Blood Coagul Fibrinolysis 2014; 25:695-702). Plasma was exposed to these various agents for at least 5 min prior to incubations with venom.
(§2) The final volume for all subsequently described plasma sample mixtures was 359.4 μl. Sample composition consisted of 326 μl of plasma; 10 μl of tissue factor reagent (0.1% final concentration in distilled water; Diagnostica Stago S.A.S., Asnieres sur Seine, France) and 3.4 μl of PBS or venom (final concentration 0.5 μg/ml). […] The aforementioned plasma and venom mixtures were placed in a disposable cup in a computer-controlled Thrombelastograph® hemostasis system (Model 5000, Haemoscope Corp., Niles, Ill., USA) and incubated for 5 or 20 min at 37° C., with addition of 20 μl of 200 mM CaCl2) as the last step to initiate clotting. Data were collected at 37° C. for 15 min after 5 min of incubation, whereas samples incubated with venom for 20 min had data collected for 30 min, given the prolonged onset of coagulation and diminished rate of thrombus formation. The following elastic modulus-based parameters previously described (see, Nielsen, et al., 2014, Blood Coagul. Fibrinolysis 25:695-702; Nielsen, et al., 2011, Blood Coagul. Fibrinolysis 22: 443-447); Nielsen V G, et al., Blood Coagul Fibrinolysis 2014; 25:845-850) were determined: time to maximum rate of thrombus generation (TMRTG): this is the time interval (min) observed prior to maximum speed of clot growth; maximum rate of thrombus generation (MRTG): this is the maximum velocity of clot growth observed (dynes/cm^2/sec); and total thrombus generation (TTG, dynes/cm^2), the final viscoelastic resistance observed after clot formation.
(§3) Data are presented as mean+SD. A commercially available statistical program was used for one-way analysis of variance followed by Holm-Sidak post hoc analyses (SigmaStat 3.1, Systat Software, Inc., San Jose, Calif., USA). Graphics depicting viscoelastic data were generated with a commercially available program (OrigenPro 7.5, OrigenLab Corporation, Northampton, Mass., USA; CorelDRAW12, Corel Corporation, Mountain View, Calif., USA).

[5] = tested on: human plasma; assay: Thrombelastography of venom naïve human plasma with iron and/or CO addition (Example I); assay type: biochemical; details: baseline (venom naïve); 10 μM FeCl3 and/or 100 μM CORM-2; compared to plasma without any additions
Description: as §1, §2, §3

[6] = 10 μM ferric chloride or 100 μM CORM-2, vs matched samples without or with venom exposure (0.5 μg/ml)

[C-]#[O+].[C-]#[O+].[C-]#[O+].[C-]#[O+].[C-]#[O+].[C-]#[O+].[Cl][Ru][Cl].[Cl][Ru][Cl] [CORM-2, tricarbonyldichlororuthenium (II) dimer]
adverse effects [1]: without adverse effects noted
maximum rate of lysis (MRL) ([2]; 100 μM CORM-2 addition followed by venom exposure (0.5 μg/ml)): reduced MRL to control values
maximum rate of lysis (MRL) ([2]; 100 μM CORM-2 addition, without venom): significantly increased
effects on C. atrox venom activity on plasmatic coagulation ([3]; isolated venom exposure): completely inhibited
coagulation kinetic parameters of plasma after addition of PBS with venom exposed to the agent ([3]; venom 2 μg/ml final, 10 μM FeCl3, 100 μM CORM-2 or iCORM-2): not different from PBS/DMSO exposed plasma

tricarbonyldichlororuthenium (II) dimer [CORM-2]
clot lysis time (CLT) [2, 6]: significantly greater
maximum rate of thrombus generation (MRTG) [2, 6]: significantly greater
time to maximum rate of lysis (TMRL) [2, 6]: significantly greater
total thrombus generation (TTG) [2, 6]: greater
time to maximum rate of thrombus generation (TMRTG) ([2]; venom exposed plasma (0.5 μg/ml)): significantly less
time to maximum rate of thrombus generation (TMRTG) ([2]; venom naïve samples): did not significantly affect
maximum rate of thrombus generation (MRTG), change on venom exposure ([4]; vs matched venom naïve samples): significantly decreased
maximum rate of thrombus generation (MRTG) ([4]; vs plasma without additions exposed to venom): significantly greater
clot strength (TTG) ([4]; vs samples without CO added): significantly greater
maximum rate of thrombus generation (MRTG) [5]: significant increase
time to maximum rate of thrombus generation (TMRTG) [5]: no change
total thrombus generation (TTG) [5]: significant increase
